In data set [1] the test system is Ndufs4(KO) mice. Briefly: Longitudinal assessment of neurological disease symptoms (clasping, ataxia, circling). In kind it is in vivo, mouse. The conditions noted are these: Ndufs4(KO) mice vs untreated. The method, then: Longitudinal assessments of neurological disease symptoms. Clasping, ataxia, and circling were assessed by visual scoring, as previously described. As disease progresses in the Ndufs4(KO) mice animals display intermittent/transient improvement of symptoms. […] For observational assessments, lab-wide quality control discussions occurred frequently to ensure consistency between technicians/researchers. Technicians contributed equally to each treatment group to minimize any potential bias between individuals.

The test system of data set [2] is Ndufs4(KO) mouse model of LS. Briefly: Survival studies and overall disease course in Ndufs4(KO) mice. In kind it is in vivo. The following applies: for impact on disease (overall) / disease or survival: Ndufs4(KO) mice; for survival: Ndufs4(KO) mice vs untreated. The method, then:
(§1) Ndufs4(+/−) mice were bred to produce Ndufs4(KO) (Ndufs4(−/−)) offspring. Mice were weaned at 20-21 days of age. Ndufs4(KO) animals were housed with a minimum of one control littermate for warmth and stimulation. Mice were weighed, and health assessed, a minimum of 3 times per week, every other day (daily for IP injected mice, see herein). Where longitudinal blood point-of-care data was collected, this was performed during these health checks. Wetted chow in a dish on the bottom of each cage, and in-cage water bottles, were provided to all cages housing Ndufs4(KO) mice following the onset of disease so that the ability to find or reach food or water was not a limiting factor for survival.
Doses of each drug was based on published data for use in animals. […] Blood and tissue concentrations reached biologically relevant levels for each of the tested inhibitors.
Pharmacologic interventions and chow formulation. Standard mouse chow was ground to a power and mixed with drugs at the doses desired (see FIGS. 4A-4L). 300 mL of 1% agar melted in sterile water was added per kilogram of powdered chow and the mixture was pelleted and baked at 37° C. for 3-5 hours to dry. Pellets were then stored at 4° C. for short term (up to 90 days) or −20° C. for long-term (up to 6 months) storage. It was previously shown that this processing had no impact on animal health or survival (Johnson et al. Front Genet. 2015; 6:247). […]
To determine whether the benefits of mTOR inhibition in Ndufs4(KO) model result from disruption of PI3K mediated signaling, animals were treated from weaning (post-natal day 21, P21) with potent, orally available, isoform specific inhibitors of the catalytic subunits of PI3K: BYL719, GSK2636771, CAL-101, and IPI-549, inhibitors of p110α, p110β, p110δ, and p110γ, respectively.

In data set [3] the test system is Ndufs4(KO) mice. Put plainly: Body weight, growth and cachexia onset. In kind it is in vivo, mouse. The method, then:
as §1
Cachexia in FIG. 4H and FIG. 6E is the day of life when weight peaks prior to the progressive weight loss which occurs in untreated Ndufs4(KO) animals.

Data set [4] relates to control and Ndufs4(KO) mice. Put plainly: Glucose tolerance test (GTT) and glucose induced lactate test. In kind it is in vivo, mouse. The following applies: 2 g/kg glucose IP; pexidartinib 300 mg/kg/d in chow, IPI-549 100 mg/kg/d in chow, rapamycin (ABI-009) 8 mg/kg/d IP. The text has this:
(§2) Point-of-care glucose and lactate testing. Blood glucose and lactate measurements were collected using point-of-care meters (Prodigy Autocode® glucose meter, product #51850-3466188, Prodigy® Diabetes Care, LLC, Charlotte, NC; lactate assay meter, product #40828, Nova Biomedical, Waltham, MA) and the tail-prick method, as previously described (Stokes et al. Elife 2021; 10:e65400).
Glucose tolerance test (GTT) and glucose induced lactate test. Prior to performing the GTT, mice were fasted for 4 hours, from 10 AM-2 PM. The fasting duration was limited to 4 hours given the sensitivity of untreated Ndufs4(KO) animals to hypoglycemia and related sequelae (dysregulation of body temperature, hypoglycemia induced seizure, etc.). For the ABI-009 cohort, mice received their daily ABI-009 treatment at the start of this fasting period. At the end of the 4 hour fast, baseline blood glucose and lactate values were collecting using point-of-care meters and the tail-prick method. Mice were then injected by IP with 2 g/kg dextrose (10 microliters/gram body weight of 200 mg/mL glucose in 1×PBS, 0.2 micron sterile filtered) using an insulin syringe (31-gauge, 6 mm length, 3/10 cc, BD Veo Ultra-Fine needle). Glucose and lactate levels were measured using a minimally invasive tail-prick method at designated timepoints post-injection.

The test system of data set [5] is Ndufs4(KO) mice. Put plainly: Point-of-care blood glucose by age. Format: in vivo, mouse.
From the text: as §2

The subject of data set [6] is Ndufs4(KO) mice. Put plainly: Rotarod assay. Format: in vivo, mouse. The conditions noted are these: latency to fall up to 10 min, 6 rpm. The method, then: Rotarod and rotarod seizures. Rotarod assays were performed using a Med Associates Inc. (Fairfax, VT) ENV-571M single lane rotarod with a black mat installed in the floor of the lane to reduce visibility of the bottom. Assays were performed by placing animals onto an already rotating rod and timing latency to fall, with a steady rotation speed set to 6 rpm (controlled by attached laptop and Med Associates software). The maximum time of each trial was 10 min, with the trial ending at that time if mice were still on the rotarod. For each assay, three trials were performed, with a minimum of 5 min between each assay. The best of the three trials was reported for the rotarod data. As detailed in the text and figure legends, rotarod was performed each 10 days of age from P30; mice in a given age group were the reported age +/−1 day.

In data set [7] the test system is Ndufs4(KO) mice. The conditions noted are these: rapamycin at doses sufficient to attenuate disease; Johnson et al.; cited from earlier work.

“Also recorded” adds a separate entry of the source.

For the molecule `Cc1nc(NC(=O)N2CCC[C@H]2C(N)=O)sc1-c1ccnc(C(C)(C)C(F)(F)F)c1` [BYL719, (2S)-1-N-[4-methyl-5-[2-(1,1,1-trifluoro-2-methylpropan-2-yl)pyridin-4-yl]-1,3-thiazol-2-yl]pyrrolidine-1,2-dicarboxamide], the “onset of symptoms: forelimb clasping, ataxia, and circling” value in the data set with Ndufs4(KO) mice [1] is recorded as “statistically significant delay in symptom onset”. In data set [2], the “impact on disease (overall) / disease or survival” value is on record as “only modestly impacting disease” and the survival result is given as “extension of survival”. Moreover, the “growth and body size” value in the data set with Ndufs4(KO) mice [3] (compared with mTOR inhibition) was “extremely small body size; also recorded: severely impaired growth and size”.
Turning to `C[C@H](NC(=O)c1c(N)nn2cccnc12)c1cc2cccc(C#Cc3cnn(C)c3)c2c(=O)n1-c1ccccc1` [IPI-549, 2-amino-N-[(1S)-1-[8-[2-(1-methylpyrazol-4-yl)ethynyl]-1-oxo-2-phenylisoquinolin-3-yl]ethyl]pyrazolo[1,5-a]pyrimidine-3-carboxamide], the “blood lactate spike in response to a glucose bolus” value in data set [4] was “similarly prevented the lactate sequelae”. Also, in the data set with Ndufs4(KO) mice [1], the “onset of symptoms: forelimb clasping, ataxia, and circling” value is “significantly delayed the onset”. Besides, in data set [2], the “impact on disease (overall) / disease or survival” value is “attenuated disease” and the survival result is recorded as “markedly extended survival”. The median survival in data set [2] (Ndufs4(KO) mice treated from weaning (P21) via chow, untreated 60) amounted to 110 days. Moreover, the cachexia entry in the data set with Ndufs4(KO) mice [3] was “prevented”. Further, the “hypoglycemia (blood glucose)” value with Ndufs4(KO) mice [5] is given as “prevented”. Moreover, the “performance on rotarod assay” value in the data set on Ndufs4(KO) mice [6] is listed as “improved”.
`CO[C@H]1C[C@@H]2CC[C@@H](C)[C@@](O)(O2)C(=O)C(=O)N2CCCC[C@H]2C(=O)O[C@H]([C@H](C)C[C@@H]2CC[C@@H](O)[C@H](OC)C2)CC(=O)[C@H](C)/C=C(\C)[C@@H](O)[C@@H](OC)C(=O)[C@H](C)C[C@H](C)/C=C/C=C/C=C/1C` [rapamycin]: in the data set on Ndufs4(KO) mice [7], the “developmental weight gain and maximum body size” value was “significant reductions”.

These data come from patent US20230321063A1, “COMPOSITIONS AND METHODS TO REDUCE NEUROINFLAMMATION” (Seattle Children's Hospital d/b/a Seattle Children's …, priority 2020, published 2023).
